From patent US20050159599A1, “Cyclic compound, process for producing the same, and pest control agent” (priority 2002, published 2005)

Columns and labels:
Format in all cases: in vivo
Spodoptera litura [1] = experiment: Insecticidal effect for Spodoptera litura by spraying treatment to host crop (Test Example 2); details: 100 ppm, sprayed on soybean, third-instar larvae of Spodoptera litura, fifth day after
Method in brief: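 Ten third-instar larvae held at 25° C. on two excised primary soybean leaves previously sprayed to dripping with 100 ppm test solution. Mortality (%) calculated from dead versus tested larvae on the fifth day.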

Plutella xylostella [2] = experiment: Insecticidal effect for Plutella xylostella by immersion treatment of host crop (Test Example 1); details: cabbage leaf dipped, second-instar larvae of Plutella xylostella, fifth day after; for rate of dead pests (%): 100 ppm
Procedure: Insecticidal Effect for Plutella xylostella by Immersion Treatment of Host Crop One true leaf of 7 to 8-leave stage cabbage was cut off and dipped in a pesticidal solution for a few seconds, which was prepared by dissolving 5 mg of test compound (represented by the compound Nos. in the above Examples) in 0.5 ml of acetone containing Tween 20 (trade name) and then diluting it to the prescribed concentration (100 ppm) with Dain (trade name, sticker) water diluted 5000-fold. After drying the pesticidal solution, the leaf was put into an ice cream cup (180 ml), and ten second-instar larvae of Plutella xylostella were set free therein. The cup was left in a temperature-controlled breeding room (24° C.). On the fifth day after, the number of surviving Plutella xylostella was examined. The rate of dead pests was calculated by the following formula. rate of dead pests (%)=(number of dead pests/number of test pests)×100

Spodoptera litura [3] = experiment: Insecticidal effect for Spodoptera litura by immersion treatment of host crop root (Test Example 4); details: 25 ppm, soybean root immersion 5 days, second-instar larvae of Spodoptera litura, fifth day after
Procedure: Insecticidal Effect for Spodoptera litura by Immersion Treatment of Host Crop Root Roots of primary leaves developing stage soybean was washed with tap water to remove soil, and then immersed in a pesticidal solution which was prepared by dissolving 5 mg of test compound (represented by the compound Nos. in the above Examples) in 0.5 ml of acetone containing Tween 20 ([…]) with ion-exchange water, and which was filled in a light-shielded Erlenmeyer flask (100 ml). On the fifth day after immersion of root, two primary leaves were cut off, and the leaves were put into an ice cream cup (180 ml). Ten second-instar larvae of Spodoptera litura were set free therein, and the cup was left in a temperature-controlled breeding room (25° C.). On the fifth day after, the number of surviving Spodoptera litura was examined. The rate of dead pests was calculated by the following formula. rate of dead pests (%)=(number of dead pests/number of test pests)×100

Plutella xylostella [4] = experiment: Insecticidal effect for Plutella xylostella by immersion treatment of host crop root (Test Example 3); details: for rate of dead pests (%): 25 ppm, cabbage root immersed 5 days, ten second-instar larvae on stem and leaves, counted on the fifth day, 24° C.
Procedure: Insecticidal Effect for Plutella xylostella by Immersion Treatment of Host Crop Root
Roots of 4-leave stage cabbage was washed with tap water to remove soil, and then immersed in a pesticidal solution which was prepared by dissolving 5 mg of test compound (represented by the compound Nos. in the above Examples) in 0.5 ml of acetone containing Tween 20 (trade name) and then diluting it to the prescribed concentration (25 ppm) with ion-exchange water, and which was filled in a light-shielded Erlenmeyer flask (100 ml). On the fifth day after immersion of root, the root was cut off, and the stem and leaves were put into an ice cream cup (180 ml). Ten second-instar larvae of Plutella xylostella were set free therein, and the cup was left in a temperature-controlled breeding room (24° C.). On the fifth day after, the number of surviving Plutella xylostella was examined. The rate of dead pests was calculated by the following formula. rate of dead pests (%)=(number of dead pests/number of test pests)×100

[5] = 120 h, read-out: rate of dead pests (%)

Row | SMILES | rate of dead pests (%) (Spodoptera litura [1]) | rate of dead pests (%) (Plutella xylostella [2]) | further results
1 | O=C(c1c(F)cccc1F)N1COCN(c2ccc([S+]([O-])C(F)(F)C(F)F)cc2Cl)C1=O (centres unmarked) [I-17] | 100 | 100 | rate of dead pests (%) (Spodoptera litura [3]): 100%
2 | O=C(c1c(F)cccc1F)N1COCN(c2ccc(SC(F)(F)C(F)F)cc2F)C1=O [I-22] | 100 | 100 | –
3 | O=C(c1c(F)cccc1F)N1COCN(c2ccc(S(=O)(=O)C(F)F)cc2F)C1=O [I-43, 3-(2,6-difluorobenzoyl)-5-[4-(difluoromethylsulfonyl)-2-fluorophenyl]tetrahydro-4H-1,3,5-oxadiazin-4-one] | – | – | pest or weed control at 100 ppm (Spodoptera litura [1]; [5]): 100%; pest or weed control at 100 ppm (Plutella xylostella [2]; foliar, 120 h, read-out: rate of dead pests (%)): 100%; pest or weed control at 25 ppm (Spodoptera litura [3]; [5]): 100%
4 | Cc1cc([S+]([O-])C(F)(F)F)ccc1N1COCN(C(=O)c2c(F)cccc2F)C1=O (centres unmarked) [I-69] | 100 | – | rate of dead pests (%) (Plutella xylostella [4]): 100%
5 | Cc1cc(N2COCN(C(=O)c3c(F)cccc3F)C2=O)ccc1[S+]([O-])C(F)(F)F (centres unmarked) [I-72] | 100 | – | rate of dead pests (%) (Plutella xylostella [4]): 100%
6 | Cc1c(N2COCN(C(=O)c3c(F)cccc3F)C2=O)ccc([S+]([O-])C(F)(F)F)c1C (centres unmarked) [I-84] | 100 | – | rate of dead pests (%) (Plutella xylostella [4]): 100%
7 | O=C(c1c(F)cccc1F)N1COCN(c2c(F)cc([S+]([O-])C(F)(F)F)cc2Cl)C1=O (centres unmarked) [I-102] | 100 | – | rate of dead pests (%) (Plutella xylostella [4]): 100%
8 | O=C(c1c(F)cccc1F)N1COCN(c2ccc([S+]([O-])C(F)(F)F)c(F)c2F)C1=O (centres unmarked) [I-108] | – | 100 | –
9 | O=C(c1c(F)cccc1F)N1COCN(c2cc(F)c([S+]([O-])C(F)(F)F)cc2F)C1=O (centres unmarked) [I-111] | 100 | – | rate of dead pests (%) (Plutella xylostella [4]): 100%
10 | O=C(c1c(F)cccc1F)N1COCN(c2c(F)cc(SC(F)(F)F)c(F)c2F)C1=O [I-116] | 100 | 100 | –
11 | O=C(c1c(F)cccc1F)N1COCN(c2ccc([S+]([O-])C(F)(F)C(F)(F)C(F)(F)F)cc2F)C1=O (centres unmarked) [I-144, 3-(2,6-difluorobenzoyl)-5-[2-fluoro-4-(1,1,2,2,3,3,3-heptafluoro-1-propylsulfinyl)phenyl]tetrahydro-4H-1,3,5-oxadiazin-4-one] | – | – | pest or weed control at 25 ppm (Plutella xylostella [4]; Plutella xylostella, in Brassica oleracea, 120 h, read-out: rate of dead pests (%)): 95%
12 | C[S+]([O-])c1ccc(N2COCN(C(=O)c3c(F)cccc3Cl)C2=O)c(F)c1 (centres unmarked) [I-206] | – | 100 | rate of dead pests (%) (Spodoptera litura [3]): 100%
13 | O=C(c1c(F)cccc1Cl)N1COCN(c2ccc(SC(F)F)cc2F)C1=O [I-218] | 100 | 100 | rate of dead pests (%) (Spodoptera litura [3]): 100%
14 | O=C(c1c(F)cccc1Cl)N1COCN(c2ccc(SC(F)(F)F)cc2F)C1=O [I-221] | 100 | 100 | rate of dead pests (%) (Spodoptera litura [3]): 100%
15 | O=C(c1c(Cl)cccc1Cl)N1COCN(c2ccc(SC(F)(F)F)cc2F)C1=O [I-398] | 100 | 100 | –
16 | O=C(c1c(F)cccc1F)N1CSCN(c2ccc(SC(F)(F)C(F)Cl)cc2F)C1=O (centres unmarked) [II-19] | – | 100 | –
17 | O=C(c1c(F)cccc1F)N1CSCN(c2ccc([S+]([O-])C(F)(F)C(F)Cl)cc2F)C1=O (centres unmarked) [II-22] | – | 100 | –
18 | C#CCN1CN(C(=O)c2c(F)cccc2F)C(=O)N(c2ccc(Oc3ccc(C(F)(F)F)cc3Cl)cc2F)C1 [III-23] | 100 | 100 | –
19 | CS(=O)(=O)N1CN(C(=O)c2c(F)cccc2F)C(=O)N(c2ccc(Oc3ccc(C(F)(F)F)cc3Cl)cc2F)C1 [III-26] | 100 | 100 | –
